Experimental data as given in US11046954B2, “Targeted protein degradation to attenuate adoptive T-cell therapy associated adverse inflammatory responses” (Dana-Farber Cancer Institute, Inc., priority 2015, dated 2021).
Entries after “also recorded” stand apart in the source; their conditions may differ.

Tests used:
[1] = tested on: indicated proteins fused to mutant FKBP*; assay: Immunoblot of MV4;11 leukemia cells expressing proteins fused to mutant FKBP* with an HA tag; details: 16 hours, indicated concentrations
Source text: Immunoblots of MV4; 11 leukemia cells expressing indicated proteins fused to mutant FKBP* with an HA tag.
To test the general utility of the dTAG technology across several protein types, the indicated proteins fused to the dTAG in MV4; 11 leukemia cells were expressed.

FKBP*-KRASG12V = assay: Immunoblot of NIH3T3 cells expressing FKBP* fused to KRASG12V: degradation; assay type: cell-based
Protocol: (§1) FIG. 19 is an immunoblot of NIH3T3 cells expressing KRASG12V allele fused to FKBP* in the N-terminus or C-terminus. Cells were treated with 500 nM dFKBP7 for the indicated time. Cells were harvested and immunoblotted to measure degradation of FKBP*-KRASG12V and downstream surrogates of KRAS signaling (e.g. pMEK and pAKT).
(§2) FIG. 20 is an immunoblot of NIH3T3 cells expressing FKBP* fused to the N-terminus of KRASG12V treated with luM of the indicated dFKBP heterobifunctional compounds for 24 hours. Cells were harvested and immunoblotted to measure degradation of FKBP*-KRASG12V and downstream surrogates of KRAS signaling (e.g. pMEK and pAKT).
as §2, with “21” for “20”, “with” for “with luM of”, “concentrations of dFKBP13” for “dFKBP heterobifunctional compounds”
(§3) FIG. 22 is an immunoblot of NIH3T3 cells expressing FKBP* fused to the N-terminus of KRASG12V treated with luM dFKBP13 for the indicated time. Cells were harvested and immunoblotted to measure degradation of FKBP*-KRASG12V and downstream surrogates of KRAS signaling (e.g. pMEK and pAKT).
(§4) Cells were treated with 500 nM dFKBP7 for the indicated time. Cells were harvested and immunoblotted to measure degradation of FKBP*-KRAS and downstream surrogates of KRAS signaling (e.g. pMEK and pAKT).
(§5) Western blotting of NIH3T3 cells expressing dTAG-KRASG12V were treated with 1 μM of the indicated dFKBP heterobifunctional compounds for 24 hours. Cells were harvested and immunoblotted to measure degradation of FKBP*-KRAS and downstream surrogates of KRAS signaling (e.g. pMEK and pAKT).
(§6) Western blotting of NIH3T3 cells expressing FKBP* fused to the N-terminus of KRAS treated with the indicated concentrations of dFKBP13 for 24 hours. Cells were harvested and immunoblotted to measure degradation of FKBP*-KRAS and downstream surrogates of KRAS signaling (e.g. pMEK and pAKT).
(§7) To evaluate the kinetic control of targeted degradation of dTAG-KRAS, dFKBP13 was administered by increased duration. Western blotting of NIH3T3 cells expressing FKBP* fused to the N-terminus of KRAS treated with 1 μM dFKBP13 for the indicated time. Cells were harvested and immunoblotted to measure degradation of FKBP*-KRAS and downstream surrogates of KRAS signaling (e.g. pMEK and pAKT).

FKBP* = target: T1, FKBP* (Homo sapiens, UniProt P62942, F37V); assay: Immunoblot of 293FT cells (CRBN-WT or CRBN−/−) expressing HA-tagged FKBP*; assay type: cell-based; details: for degradation of FKBP*: 100 nM
T1 construct: HA; expressed in transfected cells; host or cells: 293FT cells (CRBN-WT or CRBN-/-)
Protocol: (§8) FIG. 6 is an immunoblot of cells treated with bi-functional molecules described in the present invention. 293FT cells (CRBN-WT or CRBN−/−) expressing either HA-tagged FKBP12WT or FKBP* (also referred to as dFKBP12* herein) were treated with indicated concentrations of dFKBP7 for 4 hours.
(§9) Isogenic 293FT cells (CRBN-WT or CRBN−/−) expressing either FKBP12WT or FKBP* were treated with 100 nM of either dFKBP7 or dFKBP13 for 4 hours.
Isogenic 293FT cells (CRBN-WT or CRBN−/−) expressing HA-tagged FKBP* were treated with the indicated dose of dFKBP13 for 4 hours.
293FT cells (CRBN-WT) expressing HA-tagged FKBP* were treated with 100 nM dFKBP13 for the indicated times. Cells were harvested and protein lysates immunoblotted to measure the kinetics of HA-tagged FKBP* degradation induced by dFKBP13.
(§10) The dTAG is predicated on the selectivity of FKBP* specific ligands over endogenous, wild type FKBP. In 293 T cells expressing wild type FKBP 12 or FKBP*, dFKBP7 induces targeted degradation only in FKBP* expressing cells. An immunoblot of cells treated with bi-functional molecules described in the present invention was performed. 293FT cells (CRBN-WT or CRBN−/−) expressing either HA-tagged FKBP12WT or FKBP* were treated with indicated concentrations of dFKBP7 for 4 hours.
In 293T cells expressing wild type FKBP12 or FKBP*, treatment with dFKBP7 and dFKBP13 induces targeted degradation only in FKBP* expressing cells. Isogenic 293FT cells (CRBN-WT or CRBN−/−) were engineered to express either FKBP12WT or FKBP*. Cells were treated with 100 nM of either dFKBP7 or dFKBP13 for 4 hours before lysates were prepared for western immunoblot analysis.
In an effort to define the optimal concentration of dFKB13 heterobifunctional compounds to induce degradation of FKBP*, degradation was measured upon treatment with increasing concentrations of dFKBP13. Isogenic 293FT cells (CRBN-WT or CRBN−/−) were engineered to expressed HA-tagged FKBP*. Cells were treated with the indicated dose of dFKBP13 for 4 hours before lysates were prepared for western immunoblot analysis.
To evaluate the kinetic control of targeted degradation FKBP*, dFKBP13 was administered by increased duration. 293FT cells (CRBN-WT) were engineered to express HA-tagged FKBP*. Cells were treated with 100 nM dFKBP13 for the indicated times. Cells were harvested and protein lysates immunoblotted to measure the kinetics of HA-tagged FKBP* degradation induced by dFKBP 13.

[2] = tested on: downstream surrogates of KRAS signaling (e.g. pMEK and pAKT); assay: Immunoblot of NIH3T3 cells expressing FKBP*-KRASG12V: downstream KRAS signaling; assay type: cell-based
Protocol: as §1, §2
as §3, with “21” for “22”, “the indicated concentrations of” for “luM”, “24 hours.” for “the indicated time.”
as §3, §4, §5, §6, §7

FKBP12WT = target: T2, FKBP12WT (Homo sapiens, UniProt P62942); assay: Immunoblot of 293FT cells (CRBN-WT or CRBN−/−) expressing FKBP12WT; assay type: cell-based; details: for degradation of FKBP12WT or endogenous FKBP12: isogenic 293FT CRBN-WT or CRBN−/−, 100 nM, 4 hours
T2 construct: HA; expressed in transfected cells; host or cells: 293FT cells (CRBN-WT or CRBN-/-)
Protocol: as §8, §9
as §10, with “In 293 T cells expressing wild type FKBP 12 or FKBP*, dFKBP7 induces targeted degradation only in FKBP* expressing cells.” left out
Isogenic 293FT cells (CRBN-WT or CRBN−/−) were engineered to express either FKBP12WT or FKBP*. Cells were treated with 100 nM of either dFKBP7 or dFKBP13 for 4 hours before lysates were prepared for western immunoblot analysis.

[3] = 293FT CRBN-WT or CRBN−/−, indicated concentrations of dFKBP7, 4 hours
[4] = isogenic 293FT CRBN-WT or CRBN−/−, 4 hours

T1 sequence (P62942 whole entry F37V): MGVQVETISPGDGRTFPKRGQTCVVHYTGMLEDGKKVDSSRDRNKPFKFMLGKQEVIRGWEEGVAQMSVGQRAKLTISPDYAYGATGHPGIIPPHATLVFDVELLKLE
T2 sequence (P62942 whole entry): as the sequence (P62942 whole entry F37V) above, with V37F counted along it

Row | Compound | degradation of proteins fused to dTAG (FKBP*) [1] | degradation of FKBP*-KRASG12V (FKBP*-KRASG12V; 500 nM dFKBP7, indicated time, N-terminal fusion) | degradation of HA-tagged FKBP* (FKBP*; [3]) | degradation of FKBP* (FKBP*; [4]) | downstream p-AKT signal ([2]; NIH3T3 N-terminal dTAG-KRAS, 500 nM dFKBP7, indicated time) | degradation of HA-tagged FKBP12WT (FKBP12WT; [3]) | degradation of FKBP12WT or endogenous FKBP12 (FKBP12WT) | time at which degradation of FKBP*-KRASG12V and inhibition of downstream signaling are seen (FKBP*-KRASG12V; 1 μM dFKBP13, indicated time) [h] | degradation of FKBP*-KRASG12V (FKBP*-KRASG12V; 1 μM, 24 hours) | degradation of FKBP*-KRASG12V (FKBP*-KRASG12V; indicated concentrations of dFKBP13, 24 hours) | degradation of HA-tagged FKBP*, dose dependence (FKBP*; isogenic 293FT CRBN-WT or CRBN−/−, indicated dose, 4 hours) | inhibition of downstream signaling (pMEK, pAKT) ([2]; NIH3T3 FKBP*-KRASG12V, 1 μM, 24 hours) | IC50 ([2]; NIH3T3 FKBP*-KRASG12V, indicated concentrations of dFKBP13, 24 hours, read-out: IC50, inhibits downstream signaling) [nM]
1 | CC[C@H](C(=O)N1CCCC[C@H]1C(=O)O[C@H](CCc1ccc(OC)c(OC)c1)c1cccc(OCC(=O)NCCCOCCOCCOCCCNC(=O)COc2cccc3c2C(=O)N(C2CCC(=O)NC2=O)C3=O)c1)c1cc(OC)c(OC)c(OC)c1 (stereo partly shown) [dFKBP7] | degradation was observed with nanomolar concentrations | potent degradation; also recorded: N-terminal FKBP* fusions are active and degraded | CRBN-dependent degradation of FKBP* | CRBN-dependent degradation of FKBP* | downstream decrease in p-AKT signal | not FKBPWT | not FKBP12WT or endogenous FKBP12 | – | – | – | – | – | –
2 | CC[C@H](C(=O)N1CCCC[C@H]1C(=O)O[C@H](CCc1ccc(OC)c(OC)c1)c1cccc(OCC(=O)NCCCCCCOc2cccc3c2C(=O)N(C2CCC(=O)NC2=O)C3=O)c1)c1cc(OC)c(OC)c(OC)c1 (stereo partly shown) [dFKBP13] | degradation was observed with nanomolar concentrations | – | – | CRBN-dependent degradation of FKBP* | – | – | not FKBP12WT or endogenous FKBP12 | ≤ 1 | potent degradation | potently degrades dTAG-KRAS at nanomolar concentrations; also recorded: potent degradation | dose- and CRBN-dependent degradation | inhibition of downstream signaling | > 100
